Patent US20090240058A1, “Activator for Peroxisome Proliferator-Activating Receptor Delta” (priority 2005, published 2009)

Legend:
hPPAR γ (LBD) = target: T1, hPPAR γ (LBD) (Homo sapiens, UniProt P37231); test: GAL4-hPPAR γ (LBD) luciferase reporter transactivation in CV-1 cells; format: cell-based; set-up: key: IA: inactive; conditions: relative to 100% of Rosiglitazone at 10^−5 M
T1 construct: A receptor expression plasmid (pSG5-GAL4-hPPAR α or γ or δ (LBD)); GAL4 (fusion partner); expressed in transfected cells; host or cells: CV-1 cells (ATCC)
T1 sequence (P37231 238-503 limits assumed): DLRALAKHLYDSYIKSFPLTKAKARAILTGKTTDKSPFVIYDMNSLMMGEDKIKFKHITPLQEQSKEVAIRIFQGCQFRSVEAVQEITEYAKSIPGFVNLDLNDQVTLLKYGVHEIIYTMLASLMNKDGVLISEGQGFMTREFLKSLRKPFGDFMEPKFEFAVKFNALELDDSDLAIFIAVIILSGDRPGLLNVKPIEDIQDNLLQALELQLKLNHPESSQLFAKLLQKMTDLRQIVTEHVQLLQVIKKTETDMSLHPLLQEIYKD
Experimental: (§1) A receptor expression plasmid (pSG5-GAL4-hPPAR α or γ or δ (LBD)), a luciferase expression plasmid (pUC8-MH100x4-TK-Luc) and β-galactosidase expression plasmid (pCMX-β-GAL) (Kliewer, S. A., et. al., (1992) Nature, 358:771-774) are transfected into CV-1 cells (ATCC). After gene transfer utilizing a lipofection reagent DMRIE-C or Lipofectamin 2000 (Invitrogen), it is incubated for 42 hours in the presence of the test compound. Then, the luciferase activity and β-GAL activity are measured on the soluble cells. The luciferase activity is calibrated by the β-GAL activity. A relative ligand activity is calculated for each of the PPARα, γ and δ under the following conditions: a relative activity of PPAR α is calculated in consideration of a luciferase activity (assigned to 100%) of cells treated with the compound described in Example 2 of the aforementioned Patent Publication 4 (PPARα-selective agonist); a relative activity of PPAR γ is calculated in consideration of a luciferase activity (assigned to 100%) cells treated with Rosiglitazone; and a relative activity of PPAR δ is calculated in consideration of a luciferase activity (assigned to 100%) of cells treated with GW-501516. See the below-described Examples 22 and 23.
(§2) The PPARδ activating effects of test compounds (compounds of Examples) were measured by the following method:
as §1, with “(pUC8-MH100x-4-TK-Luc)” for “(pUC8-MH100x4-TK-Luc)”, “approx. 40” for “42”, “PPAR α,” for “PPARα,”, “GW-501516.” for “GW-501516. See the below-described Examples 22 and 23.”
(§3) The experimental results Table 28 were obtained by procedures similar to the procedures for pharmacological experimental described in Example 22.

hPPAR α (LBD) = target: T2, hPPAR α (LBD) (Homo sapiens, UniProt Q07869); test: GAL4-hPPAR α (LBD) luciferase reporter transactivation in CV-1 cells; format: cell-based; set-up: key: IA: inactive; conditions: relative to 100% of compound of Example 2 of Patent Publication 4 at 10^−6 M
T2 construct: A receptor expression plasmid (pSG5-GAL4-hPPAR α or γ or δ (LBD)); GAL4 (fusion partner); expressed in transfected cells; host or cells: CV-1 cells (ATCC)
T2 sequence (Q07869 239-466 limits assumed): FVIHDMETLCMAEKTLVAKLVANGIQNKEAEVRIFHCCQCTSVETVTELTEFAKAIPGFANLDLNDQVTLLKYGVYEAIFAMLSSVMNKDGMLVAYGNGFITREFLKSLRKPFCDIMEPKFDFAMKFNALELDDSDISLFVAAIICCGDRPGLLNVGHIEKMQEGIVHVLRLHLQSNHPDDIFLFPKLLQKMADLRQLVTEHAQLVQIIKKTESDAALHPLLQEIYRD
Experimental: as §1, §2
as §1, with “(pUC8-MH100x-4-TK-Luc)” for “(pUC8-MH100x4-TK-Luc)”, “approx. 40” for “42”, “PPAR α,” for “PPARα,”, “GW-501516.” for “GW-501516. See the below-described Examples 22 and 23.”
as §3

hPPAR δ (LBD) = target: T3, hPPAR δ (LBD) (Homo sapiens, UniProt Q03181); test: GAL4-hPPAR δ (LBD) luciferase reporter transactivation in CV-1 cells; format: cell-based; conditions: relative to 100% of GW-501516 at 10^−7 M
T3 construct: A receptor expression plasmid (pSG5-GAL4-hPPAR α or γ or δ (LBD)); GAL4 (fusion partner); expressed in transfected cells; host or cells: CV-1 cells (ATCC)
T3 sequence (Q03181 211-439 limits assumed): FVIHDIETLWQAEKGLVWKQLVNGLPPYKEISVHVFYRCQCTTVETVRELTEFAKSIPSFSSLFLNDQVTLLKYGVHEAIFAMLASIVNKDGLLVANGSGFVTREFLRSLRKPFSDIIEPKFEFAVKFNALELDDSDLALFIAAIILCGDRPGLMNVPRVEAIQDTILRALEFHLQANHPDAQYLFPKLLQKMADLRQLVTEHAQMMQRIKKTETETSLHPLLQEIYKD
Experimental: For determining PPARδ activating effect of the compounds according to the invention, PPARδ activating effects of test compounds (compounds of Examples) were measured by the following method:
as §1, §2
as §1, with “(pUC8-MH100x-4-TK-Luc)” for “(pUC8-MH100x4-TK-Luc)”, “approx. 40” for “42”, “PPAR α,” for “PPARα,”, “GW-501516.” for “GW-501516. See the below-described Examples 22 and 23.”
as §3

[1] = Table 28, test compound 10^−6 M
[2] = test compound 10^−7 M (Examples 5, 8 and 10)
[3] = test compound 10^−7 M (Examples 8 and 10)

Compound | PPAR activity (%) γ (hPPAR γ (LBD); [1]) | PPAR activity (%) α (hPPAR α (LBD); [1]) | PPAR activity (%) δ (hPPAR δ (LBD); [1]) | PPAR activity (%) γ (hPPAR γ (LBD); test compound 10^−6 M) | PPAR activity (%) α (hPPAR α (LBD); test compound 10^−6 M) | melting point | PPAR activity (%) δ (hPPAR δ (LBD); test compound 10^−6 M) | PPAR activity (%) δ (hPPAR δ (LBD); [2]) | PPAR activity (%) α (hPPAR α (LBD); [3])
Cc1cc(C(=O)CCc2cc(-c3ccc(C(F)(F)F)cc3)nn2C(C)C)ccc1OCC(=O)O [Example 6, [4-[3-[1-Isopropyl-3-(4-trifluoromethylphenyl)-1H-pyrazol-5-yl]propionyl]-2-methylphenoxy]acetic acid] | – | – | – | IA | IA | 160 to 163 °C | 86% | – | –
Cc1cc(C(=O)CCc2cc(-c3ccc(C(F)(F)F)cc3)nn2C(C)C)ccc1OC(C)(C)C(=O)O [Example 5, 2-[4-[3-[1-Isopropyl-3-(4-trifluoromethylphenyl)-1H-pyrazol-5-yl]propionyl]-2-methylphenoxy]-2-methylpropionic acid] | – | – | – | 15% | 109% | – | – | 93% | –
Cc1cc(C(=O)CCc2sc(-c3ccc(C(F)(F)F)cc3)cc2C)ccc1OC(C)(C)C(=O)O [Example 12, 2-Methyl-2-[2-methyl-4-[3-[3-methyl-5-(4-trifluoromethylphenyl)thiophen-2-yl]propionyl]phenoxy]-propionic acid] | – | – | – | 29% | 51% | – | 94% | – | –
Cc1cc(C(=O)CCc2sc(-c3ccc(C(F)(F)F)cc3)cc2C)ccc1OCC(=O)O [Example 13, [2-Methyl-4-[3-[3-methyl-5-(4-trifluoromethylphenyl)thiophen-2-yl]propionyl]phenoxy]acetic acid] | – | – | – | IA | IA | – | 82% | – | –
Cc1cc(C(=O)CCc2cn(-c3ccc(C(F)(F)F)cc3)nc2C(C)C)ccc1OCC(=O)O [Example 2, 4-[3-[3-Isopropyl-1-(4-trifluoromethylphenyl)-1H-pyrazol-4-yl]propionyl]-2-methylphenoxyacetic acid] | – | – | – | IA | IA | – | 76% | – | –
CCCCCCn1nc(-c2ccc(C)cc2)cc1CCC(=O)c1ccc(OC(C)(C)C(=O)O)c(C)c1 [Example 14, 2-[4-[3-[1-Hexyl-3-(4-methylphenyl)-1H-pyrazol-5-yl]propionyl]-2-methylphenoxy]-2-methylpropionic acid] | 48% | 123% | 94% | – | – | – | – | – | –
CCCCCCn1nc(-c2ccc(C(F)(F)F)cc2)cc1CCC(=O)c1ccc(OCC(=O)O)c(C)c1 [Example 11, [4-[3-[1-Hexyl-3-(4-trifluoromethylphenyl)-1H-pyrazol-5-yl]propionyl]-2-methylphenoxy]acetic acid] | – | – | – | IA | IA | 118 to 123 °C | 81% | – | –
CCCCCCn1nc(-c2ccc(C(F)(F)F)cc2)cc1CCC(=O)c1ccc(OC(C)(C)C(=O)O)c(C)c1 [Example 10, 2-[4-[3-[1-Hexyl-3-(4-trifluoromethylphenyl)-1H-pyrazol-5-yl]propionyl]-2-methylphenoxy]-2-methylpropionic acid] | – | – | – | 54% | – | – | – | 53% | 77%
CCCCCCc1cc(-c2ccc(C)cc2)sc1CCC(=O)c1ccc(OC(C)(C)C(=O)O)c(C)c1 [Example 17, 2-[4-[3-[3-Hexyl-5-(4-methylphenyl)thiophen-2-yl]propionyl]-2-methylphenoxy]-2-methylpropionic acid] | 35% | 109% | 76% | – | – | – | – | – | –

Next, values leading:

PPAR activity (%) γ (hPPAR γ (LBD); [1]) | PPAR activity (%) α (hPPAR α (LBD); [1]) | PPAR activity (%) δ (hPPAR δ (LBD); [1]) | PPAR activity (%) γ (hPPAR γ (LBD); test compound 10^−6 M) | PPAR activity (%) α (hPPAR α (LBD); test compound 10^−6 M) | melting point | PPAR activity (%) δ (hPPAR δ (LBD); test compound 10^−6 M) | PPAR activity (%) δ (hPPAR δ (LBD); [2]) | PPAR activity (%) α (hPPAR α (LBD); [3]) | Compound
11% | 99% | 85% | – | – | – | – | – | – | Cc1cc(C(=O)CCc2sc(-c3ccc(C(F)(F)F)cc3)cc2C(C)C)ccc1OC(C)(C)C(=O)O [Example 15, 2-[4-[3-[3-Isopropyl-5-(4-trifluoromethylphenyl)thiophen-2-yl]propionyl]-2-methylphenoxy]-2-methylpropionic acid]
– | – | – | 29% | 73% | – | 59% | – | – | Cc1cc(C(=O)CCc2cc(-c3ccc(C(F)(F)F)cc3)nn2C(C)C)ccc1OC(C)C(=O)O (stereo not drawn) [Example 9, 2-[4-[3-[1-Isopropyl-3-(4-trifluoromethylphenyl)-1H-pyrazol-5-yl]propionyl]-2-methylphenoxy]propionic acid]
inactive | inactive | 92% | – | – | 139 to 143 °C | – | – | – | Cc1cc(C(=O)CCc2sc(-c3ccc(C(F)(F)F)cc3)cc2C(C)C)ccc1OCC(=O)O [Example 16, [4-[3-[3-Isopropyl-5-(4-trifluoromethylphenyl)thiophen-2-yl]propionyl]-2-methylphenoxy]acetic acid]
– | – | – | 7% | 62% | – | 87% | – | – | Cc1cc(C(=O)CCc2cn(-c3ccc(C(F)(F)F)cc3)nc2C(C)C)ccc1OC(C)(C)C(=O)O [Example 1, 2-[4-[3-[3-Isopropyl-1-(4-trifluoromethylphenyl)-1H-pyrazol-4-yl]propionyl]-2-methylphenoxy]-2-methylpropionic acid]
– | – | – | 30% | 131% | – | 72% | – | – | Cc1ccc(-n2cc(CCC(=O)c3ccc(OC(C)(C)C(=O)O)c(C)c3)c(C(C)C)n2)nc1 [Example 3, 2-[4-[3-[3-Isopropyl-1-(5-methylpyridin-2-yl)-1H-pyrazol-4-yl]propionyl]-2-methylphenoxy]-2-methylpropionic acid]
– | – | – | 61% | – | – | – | 45% | 89% | Cc1cc(C(C)CCc2cc(-c3ccc(C(F)(F)F)cc3)nn2C(C)C)ccc1OC(C)(C)C(=O)O (stereo not drawn) [Example 8, 2-[4-[3-[1-Isopropyl-3-(4-trifluoromethylphenyl)-1H-pyrazol-5-yl]-1-methylpropyl]-2-methylphenoxy]-2-methylpropionic acid]
– | – | – | 38% | 84% | – | 72% | – | – | C=C(CCc1cc(-c2ccc(C(F)(F)F)cc2)nn1C(C)C)c1ccc(OC(C)(C)C(=O)O)c(C)c1 [Example 7, 2-[4-[1-[2-[1-Isopropyl-3-(4-trifluoromethylphenyl)-1H-pyrazol-5-yl]ethyl]vinyl]-2-methylphenoxy]-2-methylpropionic acid]
